For this experiment, the target named is T1, human-liver type GST-GK (Homo sapiens, UniProt P35557).
T1 construct: made in house; host or cells: E. coli
T1 sequence (P35557 1-466 isoform P35557-2): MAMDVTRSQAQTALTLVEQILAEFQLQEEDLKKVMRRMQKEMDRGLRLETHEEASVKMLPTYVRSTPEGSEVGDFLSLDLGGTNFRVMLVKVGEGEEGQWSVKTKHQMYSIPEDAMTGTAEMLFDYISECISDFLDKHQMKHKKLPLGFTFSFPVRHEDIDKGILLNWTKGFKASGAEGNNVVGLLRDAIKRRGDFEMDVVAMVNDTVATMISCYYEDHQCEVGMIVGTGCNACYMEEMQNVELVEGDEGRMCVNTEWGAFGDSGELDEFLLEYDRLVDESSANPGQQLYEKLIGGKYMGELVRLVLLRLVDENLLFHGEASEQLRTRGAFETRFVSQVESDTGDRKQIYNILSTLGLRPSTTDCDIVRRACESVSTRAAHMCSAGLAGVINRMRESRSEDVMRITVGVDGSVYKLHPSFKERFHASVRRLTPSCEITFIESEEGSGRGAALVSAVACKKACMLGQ
The experiment in a line: Glucokinase activation effect (G6PDH-coupled NADPH assay). The class given is biochemical. To be noted: glucose 5 mM, ATP 5 mM, 30° C., NADPH monitored at 340 nm for 10 minutes, compound 0.01 to 100 μM (5% DMSO). As for the experimental part:
A glucokinase activity was examined by measuring the amount of NADPH obtained in generating 6-phosphogluconic acid from […], not by directly measuring the generated glucose-6-phosphoric acid. The glucokinase enzyme used in the examination was human-liver type GST-GK expressed by E. Coli. The measurement of the activity was carried out by the following procedures. Specifically, 30 mM HEPES buffer (pH7.4) containing 30 mM MgCl2, 30 mM KCl, 1 mM DTT, 5 mM NADP (Nacalai), 0.7 mU/mL G6PDH (Roche 737-232 grade II from yeast) and 0.17 μL/mL GST-GK was prepared as a reaction solution. An evaluating compound dissolved in DMSO was added to the reaction solution to give a final concentration of 0.01 to 100 μM (5% DMSO). Thereto was added glucose (final concentration of 5 mM) as a substrate and was added ATP (final concentration of 5 mM) to proceed the reaction. The reaction temperature is 30° C. and a generation of NADPH was monitored by changes of absorbance of 340 nm. An increase of absorbance for 10 minutes after starting reaction was measured and the blank-corrected value was used as a GK activity (mOD/min). EC50 level was calculated by a GK activity level in an addition of the evaluating compound at each concentration.

SMILES strings stand for the structures.

`CN1CCN(S(=O)(=O)c2cnc(NC(=O)/C(=N/N3CCCC3)c3ccc(S(=O)(=O)C4CC4)cc3)s2)CC1` [Example 27]: the midpoint of the response, the EC50, lay at 220 nM.

`O=C(Nc1ncc(F)s1)/C(=N/N1CCOCC1)c1ccc(S(=O)(=O)C2CC2)cc1` [Example 2]: it took 360 nM to reach a half-maximal effect (EC50). For `COc1ccc2nc(NC(=O)/C(=N/N3CCCC3)c3ccc(S(=O)(=O)C4CC4)cc3)sc2n1` [Example 1] the value was 70 nM; for `O=C(Nc1ncc(Cl)s1)/C(=N/N1CCOCC1)c1ccc(S(=O)(=O)C2CC2)cc1` [Example 42], 110 nM; for `O=C(Nc1ncc(Br)s1)/C(=N/N1CCCC1)c1ccc(S(=O)(=O)C2CC2)cc1` [Example 24], 30 nM.

`CN(C)S(=O)(=O)c1cnc(NC(=O)/C(=N/N2CCCC2)c2ccc(S(=O)(=O)C3CC3)cc2)s1` [Example 64]: it took 120 nM to reach a half-maximal effect (EC50).
